In brackets after ≈: the same amount, converted by molar mass. Where two headings read alike, the source gives them in different places.
Tests used:
[1] = system: housefly; experiment: Insecticidal activity against housefly (Filter paper bait and contact method); format: in vivo; settings: 500 ppm, 48 hours, adult female houseflies; for mortality at 500 ppm: Musca domestica, read-out: Mortality
Procedure: Each 20 parts of the present compounds No. 1 to No. 29, 10 parts of an emulsifier (Sorpol 3005X; trademark for Toho Chemical Co.) and 70 parts of xylene are thoroughly mixed by stirring to obtain an emulsifiable concentrate of each compound.
A piece of filter paper, 5.5 cm in diameter, was laid on the bottom of a polyethylene cup of the identical inner diameter. An emulsifiable concentrate prepared in the same manner as in Preparation Example 2 was diluted with water. To the filter paper, was added dropwise 0.7 ml of the diluted sample (500 ppm in concentration). Sucrose (30 mg) was placed on the filter paper to serve as bait. Ten adult female houseflies were released into the cup, closed with a cover, and observed for the number of dead and alive insects after 48 hours to calculate the mortality (2 replications).

[2] = system: housefly; experiment: Insecticidal activity against housefly (Topical application method); format: in vivo; settings: dorsal thorax, adult female, 24 hours
Procedure: The present compounds and the reference compounds were diluted with acetone to prescribed concentrations. Each 0.5 μl of the diluted samples was applied topically with a microsyringe onto the dorsal thorax of an adult female housefly. The flies were fed and observed for the number of dead and alive insects after 24 hours. LD50 (median lethal dose) was calculated from the mortalities at each dosage by probit method.

[3] = system: green rice leafhopper; experiment: Insecticidal activity against green rice leafhopper; settings: Nephotettix cincticeps, 24 h
[4] = system: tobacco cutworm; experiment: Insecticidal activity against tobacco cutworm; format: in vivo; settings: 24 h
Procedure: An artificial diet (15 g) for tobacco cutworm was wet with 2 ml of the prescribed aqueous dilution of an emulsifiable concentrate obtained in Preparation Example 2 or of that obtained from reference compounds. The diet thus treated was placed in a polyethylene cup of 11 cm in diameter.

[5] = system: housefly; experiment: Activity of oil spray against adult housefly (glass chamber); format: in vivo; settings: oil spray 0.5 ml, 10 minutes exposure; for mortality, House fly: observed on the following day, 1440 min
Procedure: (§1) 0.1 Part of each compound Nos. 10, 12, 15, 17, 18, 19, 22, 23 and 29 of this invention is dissolved in deodorized kerosene and made up to 100 parts with kerosene to obtain an oil spray.
(§2) Ten adult houseflies and ten adult female northern house mosquitos were released in a glass chamber, 70×70×70 cm in size. An oil spray preparation (0.5 ml) obtained in Preparation Example 1 was sprayed inside the chamber and the insects were exposed to the descending mist for 10 minutes, during which time the number of knocked-down insects was counted at predetermined time intervals to determine the 50% knockdown time (KT50). On the following day, the dead and alive insects were observed.

[6] = system: northern house mosquito; experiment: Activity of oil spray against adult female northern house mosquito (glass chamber); format: in vivo; settings: for mortality, Northern house mosquito: in vivo, 24 h; for KT50 (50% knockdown time), Northern house mosquito: oil spray 0.5 ml, 10 minutes exposure
Procedure: as §1, §2

[7] = read-out: Percent mortality days after spraying: 0
[8] = read-out: Percent mortality days after spraying: 3
[9] = read-out: Percent mortality days after spraying: 7
[10] = read-out: LC50 (median lethal concentration), treated artificial diet, third-instar larvae, 24 hours
[11] = read-out: LC50 (median lethal concentration)

SMILES | mortality at 500 ppm [1] [%] | LD50 (median lethal dose) [2] [μg/female] | LC50 [4, 10] [µg/mL] | KT50 (50% knockdown time), House fly [5] [s] | mortality, House fly [5] [%] | mortality, Northern house mosquito [6] [%] | KT50 (50% knockdown time), Northern house mosquito [6] [s] | further results
CC1(C)C(C(=O)OC(C#N)c2cccc(Oc3ccccc3)c2)C12Cc1ccccc1C2 (stereo not shown) [Compound 2] | 100 | 0.0045 | 2 (≈ 4.72 µM) | – | – | – | – | mortality at 50 ppm [3, 7]: 100%; mortality at 50 ppm [3, 8]: 100%; mortality at 50 ppm [3, 9]: 100%
C#CCC=C(C)C(C#C)OC(=O)C1C(C)(C)C12Cc1ccccc1C2 (stereo not shown) [Compound 23] | 100 | 0.045 | – | 388 | 60 | 70 | 360 | –
CC1(C)C(C(=O)O[C@H](C#N)c2cccc(Oc3ccccc3)c2)C12Cc1ccccc1C2 (stereo partly shown) [Compound 9] | – | 0.0013 | – | – | – | – | – | Mortality [1]: 100%; LC50 (median lethal concentration) ([4]; tobacco cutworm, in vivo): 0.6 ppm
CC1(C)C(C(=O)OCN2C(=O)C3=C(CCCC3)C2=O)C12Cc1ccccc1C2 (stereo not shown) [Compound 12] | 100 | – | – | 125 | 10 | 95 | 400 | –
C#CC(C#C)OC(=O)C1C(C)(C)C12Cc1ccccc1C2 (stereo not shown) [Compound 24] | 100 | – | – | – | – | – | – | –
CC1(C)[C@@H](C(=O)OC(C#N)c2cccc(Oc3ccccc3)c2)[C@@]12Cc1ccccc1O2 (relative stereo) [Compound 18] | 100 | 0.0061 | 1.8 (≈ 4.23 µM) | 600 | 10 | 100 | 456 | –
CC1(C)C(C(=O)OC2C=C(Cc3ccccc3)C(=O)C2)C12Cc1ccccc1C2 (stereo not shown) [Compound 29] | 100 | – | – | 298 | 40 | 70 | 296 | –
CC1(C)C(C(=O)OCc2coc(Cc3ccccc3)c2)C12Cc1ccccc1C2 (stereo not shown) [Compound 11] | 100 | 0.023 | – | – | – | – | – | –
C#CCN1CC(=O)N(COC(=O)C2C(C)(C)C23Cc2ccccc2C3)C1=O (stereo not shown) [Compound 22] | 100 | – | – | 80 | 90 | 10 | 344 | –
CC1(C)C(C(=O)OC(C#N)c2cccc(Oc3ccccc3)c2)C12Cc1ccc(Cl)cc1C2 (stereo not shown) [Compound 3] | 100 | 0.0076 | 3.3 (≈ 7.21 µM) | – | – | – | – | mortality at 50 ppm [3, 7]: 100%; mortality at 50 ppm [3, 8]: 100%; mortality at 50 ppm [3, 9]: 100%
CC1(C)C(C(=O)OC(C#N)c2cccc(Oc3ccccc3)c2)C12C=Cc1ccccc12 (stereo not shown) [drawing 63, reference compound] | – | – | – | – | – | – | – | LC50 [4, 11]: 46.1 µg/mL (≈ 109 µM)
CC(C)=CC1C(C(=O)OCc2cccc(Oc3ccccc3)c2)C1(C)C (stereo not shown) [drawing 62, reference compound] | – | – | – | – | – | – | – | LC50 [4, 11]: 24 µg/mL (≈ 68.5 µM)
CC1(C)C(C(=O)O[C@H](C#N)c2cccc(Oc3ccccc3)c2)C12Cc1ccccc1C2 (stereo partly shown) [Compound 8] | 100 | 0.0032 | 1.1 (≈ 2.6 µM) | – | – | – | – | –
CC1(C)C(C(=O)OC(C#N)c2ccc(F)c(Oc3ccccc3)c2)C12Cc1ccccc1C2 (stereo not shown) [Compound 7] | 100 | 0.0044 | 1.8 (≈ 4.08 µM) | – | – | – | – | mortality at 50 ppm [3, 7]: 100%; mortality at 50 ppm [3, 8]: 100%; mortality at 50 ppm [3, 9]: 100%
CC1(C)[C@@H](C(=O)OC(C#N)c2cccc(Oc3ccccc3)c2)[C@]12Cc1ccccc1O2 (relative stereo) [Compound 17] | 100 | 0.064 | – | 264 | 80 | 100 | 330 | –
C=CCc1cccc2c1CCC2OC(=O)C1C(C)(C)C12Cc1ccc(F)cc1C2 (stereo not shown) [Compound 26] | 100 | – | – | – | – | – | – | –
